Results as given in patent publication US7799775B2, “Pyrimidine derivatives” (ASKA Pharmaceutical Co., Ltd., priority 2004, dated 2010).

Legend:
human 5-HT1A receptor = biological target: T1, human 5-HT1A receptor (Homo sapiens, UniProt P08908); experiment: Affinity measurement of the compounds to human 5-HT1A receptor (in vitro), [3H]8-OH-DPAT binding; details: test compound 100 nmols/L; [3H]8-OH-DPAT 0.25 nmols/L; CHO cell membrane expressing human 5-HT1A receptor; read-out: Percent Inhibition (%) on Each Receptor's Binding at 10^−7M, 5-HT1A
T1 construct: purchased Packard Bioscience; host or cells: CHO cells (membrane preparation)
T1 sequence (P08908 1-422): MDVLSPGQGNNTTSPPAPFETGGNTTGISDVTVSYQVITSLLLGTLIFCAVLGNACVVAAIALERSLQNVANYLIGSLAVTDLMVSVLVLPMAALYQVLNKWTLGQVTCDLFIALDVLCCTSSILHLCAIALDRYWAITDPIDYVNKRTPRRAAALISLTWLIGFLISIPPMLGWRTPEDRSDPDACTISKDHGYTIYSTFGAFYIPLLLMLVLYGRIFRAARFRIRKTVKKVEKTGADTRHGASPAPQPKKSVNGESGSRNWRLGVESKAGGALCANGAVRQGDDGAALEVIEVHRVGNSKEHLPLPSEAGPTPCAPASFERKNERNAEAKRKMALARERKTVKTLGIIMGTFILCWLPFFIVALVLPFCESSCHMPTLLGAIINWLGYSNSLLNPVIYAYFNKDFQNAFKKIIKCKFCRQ
Procedure, shortened: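 Membranes from CHO cells expressing human 5-HT1A were incubated 60 min at 27 °C with 0.25 nmol/L [3H]8-OH-DPAT and compound in Tris/MgSO4/EDTA/ascorbate buffer, pH 7.4. Bound radioactivity was collected on PEI-soaked GF/C filters and counted; percent inhibition was corrected for non-specific binding defined with 10 μmol/L 8-OH-DPAT.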

human 5-HT3 receptor = biological target: T2, human 5-HT3 receptor (Homo sapiens, UniProt P46098); experiment: Measurement of affinity to human 5-HT3 receptor (in vitro), [3H]BRL-43694 binding; details: test compound 100 nmols/L; [3H]BRL-43694 0.5 nmols/L; HEK-293 cell membrane expressing human 5-HT3 receptor; read-out: Percent Inhibition (%) on Each Receptor's Binding at 10^−7M, 5-HT3
T2 construct: purchased BIOLINKS K.K; host or cells: HEK-293 cells (membrane preparation)
T2 sequence (P46098 24-478): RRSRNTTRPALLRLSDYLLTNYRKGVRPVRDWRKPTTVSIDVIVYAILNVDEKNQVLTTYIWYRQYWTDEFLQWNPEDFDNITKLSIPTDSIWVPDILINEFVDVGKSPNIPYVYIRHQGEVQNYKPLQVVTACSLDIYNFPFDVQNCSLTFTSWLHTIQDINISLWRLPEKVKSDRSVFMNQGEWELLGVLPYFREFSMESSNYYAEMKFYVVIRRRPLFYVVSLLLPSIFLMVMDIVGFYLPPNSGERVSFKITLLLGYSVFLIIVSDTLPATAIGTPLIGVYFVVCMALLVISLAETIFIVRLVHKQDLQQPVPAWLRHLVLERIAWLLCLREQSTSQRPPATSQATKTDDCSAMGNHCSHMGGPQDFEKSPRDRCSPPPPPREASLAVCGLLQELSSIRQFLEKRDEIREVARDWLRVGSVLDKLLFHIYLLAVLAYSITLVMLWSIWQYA
Procedure, shortened: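 Membranes from HEK-293 cells expressing the receptor were incubated with 0.5 nmol/L radioligand and compound for 60 min at 25 °C in Tris/MgCl2/EDTA buffer, pH 7.5. Bound radioactivity was collected by filtration and counted. Percent inhibition was corrected for non-specific binding defined with 10 μmol/L tropisetron; compounds were tested at 100 nmol/L.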

Structure (SMILES)	melting point	inhibition at 0.1 µM (human 5-HT1A receptor)	inhibition at 0.1 µM (human 5-HT3 receptor)
Cc1sc2nc(SCCCN3CCN(c4ccccn4)CC3)n(N)c(=O)c2c1C [Example 1-2, 3-amino-5,6-dimethyl-2-[3-(4-pyridin-2-ylpiperazin-1-yl)propylthio]-3H-thieno[2,3-d]pyrimidin-4-one]	183.1 to 184.8 °C	–	–
O=c1[nH]c(SCCCN2CCN(c3ccccn3)CC2)nc2sc3c(c12)CCCC3 [Example 2-2, 2-[3-(4-pyridin-2-ylpiperazin-1-yl)propylthio]-5,6,7,8-tetrahydro-3H-benzo[4,5]thieno[2,3-d]pyrimidin-4-one]	190.2 to 191.6 °C	–	–
O=c1[nH]c(CCCCN2CCN(c3ccccn3)CC2)nc2sc3c(c12)CCCC3 [Example 3-10, 2-[4-(4-pyridin-2-ylpiperazin-1-yl)butyl]-5,6,7,8-tetrahydro-3H-benzo[4,5]thieno[2,3-d]pyrimidin-4-one]	192.6 to 194.4 °C	–	–

Other lines, results leading:

melting point	inhibition at 0.1 µM (human 5-HT1A receptor)	inhibition at 0.1 µM (human 5-HT3 receptor)	Structure (SMILES)
200.1 to 201.4 °C	–	–	CCOC(=O)c1sc2nc(SCCCN3CCN(c4ccc5ccccc5n4)CC3)[nH]c(=O)c2c1C [Example 2-6, 5-methyl-4-oxo-2-[3-(4-quinolin-2-ylpiperazin-1-yl)propylthio]-3,4-dihydrothieno[2,3-d]pyrimidine-6-carboxylic acid ethyl ester]
224.8 to 225.9 °C	–	–	Cc1sc2nc(SCCCN3CCN(c4ccc5ccccc5n4)CC3)[nH]c(=O)c2c1C [Example 2-4, 5,6-dimethyl-2-[3-(4-quinolin-2-yl-piperazin-1-yl)propylthio]-3H-thieno[2,3-d]pyrimidin-4-one]
209 to 209.4 °C	60.8%	52.6%	Cc1sc2nc(SCCCN3CCN(c4ccccn4)CC3)[nH]c(=O)c2c1C [Example 2-1, 5,6-dimethyl-2-[3-(4-pyridin-2-ylpiperazin-1-yl)propylthio]-3H-thieno[2,3-d]-pyrimidin-4-one]
